Test results as given in patent US8629132B2, “Kinase inhibitors” (Genosco, priority 2009, dated 2014).
Entries after “also recorded” stand apart in the source; their conditions may differ. Where a name gives a salt, the structure may show the parent alone.

Legend:
[1] = target: T1, SYK (Homo sapiens, UniProt P43405); assay: Kinase inhibition assay: SYK; format: biochemical
T1 construct: Purified full-length human SYK, ZAP70, PIM1, PYK2; purchased Carna Biosciences
Procedure: (§1) Compounds of the present invention were tested for their capacity to inhibit a kinase panel which includes, but are not limited to, spleen tyrosine kinase (SYK), zeta-chain-associated protein kinase 70 (ZAP70), PTK2B protein tyrosine kinase 2 (PYK2), focal adhesion kinase (FAK), provirus integration of maloney kinase 1 (PIM1), rearranged during transfection kinase (RET), Fms-like tyrosine kinase 3 (FLT3), Janus kinase 2 (JAK2), and leucine-rich repeat kinase 2 (LRRK2).
(§2) Inhibition of SYK, ZAP70, PYK2, FAK, PIM1, RET, FLT3, JAK2 and LRRK2 Kinase Activity
(§3) Compounds of the invention were initially diluted to 10 mM in 100% DMSO (CALBIOCHEM™) for storage and made into kinase buffer solution to create a compound concentration ranging from 1 uM and 10 uM. Serial dilutions of compounds of the invention were dispensed into a 96-well plate (GREINER BIOSCIENCES™) at 6 μL each. Purified full-length human SYK, ZAP70, PIM1, PYK2 and truncated human FAK, RET, FLT3, JAK2, and LRRK2 (CARNA BIOSCIENCES™) were diluted in kinase buffer and added to the compound solutions and pre-incubated for 30 minutes at room temperature (1 hour for PYK2). […] The reaction mixture was incubated for 1 hour (2 hours for PYK2). Following the incubation, the stop solution made with EDTA, water, and Lance detection buffer ([…]™) was added (12μL each) to stop phosphorylation. […] The IC50 value of test compound was calculated at Gradpad Prism 5 unless specified otherwise.

[2] = system: TNF-α release in THP-1 cells; assay: SYK dependent TNF-α release assay (IgG stimulation); format: cell-based, human; conditions: for inhibition at 0.3 µM / inhibition at 1 µM: Homo sapiens; for percentage inhibition of TNF-α release compared with R406: IgG stimulated release
Procedure: (§4) Compounds of the present invention are tested for their effects on TNF-α release in human acute monocytic leukimia cell line (THP-1) to illustrate potential efficacy at the cellular level. TNF-α is a cytokine involved in systemic inflammation and is a member of a group of cytokines that stimulate the acute phase reaction. The primary role of TNF-α is in the regulation of immune cells. TNF-α is known to induce apoptotic cell death and inflammation and to inhibit early tumorigenesis and viral replication. Dysregulation and, in particular, overproduction of TNF-α have been implicated in a variety of human diseases, autoimmune disease, inflammation, arthritis and cancer.
(§5) Production or release of TNF-α is controlled by type of stimulus to which the cell responds. SYK activity is involved in mediating TNF-α production. When stimulated by IgG, cells increase TNF-α production in a SYK dependent manner (i.e., the SYK dependent pathway). However, when stimulated by lipopolysaccharide (LPS), they produce TNF-α in a SYK independent manner.
Compounds of the invention were tested for their TNF-α release effect on THP-1 cells. For SYK dependent TNF-α release assay (i.e., via IgG stimulation), THP-1 cells derived from human monocytic cells were obtained from the American Type Culture Collection (ATCC, Manassas, Va.). This cell line was maintained with an Roswell Park Memorial Institute (RPMI) medium (GIBCO™) containing 10 fetal bovine serum (FBS; GIBCO™) and 0.05 mM 2-mercaptoethanol. The THP-1 cells were seeded at 1×10^5 cells/100 μL/well into human IgG (10 μg/well, INVITROGENT™)-coated 96 well culture plate, and serially diluted compound was then added. After an 18-hour incubation period at 37° C., supernatants were collected for the determination of the TNF-α level by enzyme-linked immunosorbent assay (ELISA), and the remaining cells were subjected to an MTT (yellow tetrazolium salt) assay to determine the cytotoxic effects of compound.

[3] = system: TNF-α release in THP-1 cells; assay: SYK independent TNF-α release assay (LPS stimulation); format: cell-based; conditions: Homo sapiens, 18-hour incubation
Procedure: as §4, §5
For SYK independent TNF-α release assay (i.e., via lipopolysaccharide (LPS)-stimulation), THP-1 cells derived from human monocytic cells were obtained from the American Type Culture Collection (ATCC, Manassas, Va.). This cell line was maintained with an RPMI medium (GIBCO™) containing 10 fetal bovine serum (FBS, GIBCO™) and 0.05 mM 2-mercaptoethanol. The THP-1 cells were seeded at 1×10^5 cells/100 μL/well into 96-well culture plates, and treated with lipopolysaccharide (1 μg/ml), and serially diluted compound was then added. After an 18-hour incubation period at 37° C., supernatants were collected for the determination of the TNF-α level by ELISA, and the remaining cells were subjected to an MTT assay to determine the cytotoxic effects.

[4] = target: JAK2 (Homo sapiens, UniProt O60674); assay: Kinase inhibition assay: JAK2; format: biochemical; parameters: truncated human FAK, RET, FLT3, JAK2, and LRRK2; purchased Carna Biosciences
JAK2, sequence (O60674 826-1132 limits assumed): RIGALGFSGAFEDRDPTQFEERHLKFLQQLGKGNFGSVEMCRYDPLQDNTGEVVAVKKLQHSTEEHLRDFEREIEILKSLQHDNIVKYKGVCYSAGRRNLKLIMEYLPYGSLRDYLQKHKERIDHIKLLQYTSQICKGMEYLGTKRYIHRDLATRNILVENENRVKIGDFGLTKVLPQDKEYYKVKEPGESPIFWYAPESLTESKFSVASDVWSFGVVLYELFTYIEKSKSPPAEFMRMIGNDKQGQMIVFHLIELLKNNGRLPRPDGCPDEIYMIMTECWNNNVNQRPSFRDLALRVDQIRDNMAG
Procedure: as §1, §2, §3

[5] = system: MV4-11 cells; assay: Cell viability assay: FLT3-ITD-positive cells; format: cell-based, human; conditions: for IC50: Homo sapiens, MV4-11, 72-hour incubation, read-out: Viability of FLT3-ITD Induced Cancer Cell Line MV-4-11 (IC50 nM)
Procedure: Compounds of the invention were tested for their effects on inhibition of FLT3-ITD in human acute leukemia cell line (MV4-11). FLT3 is primarily expressed in immature hematopoietic progenitor as well as in mature myeloid cells. It belongs to type III receptor tyrosine kinase (RTK) family including KIT, FMS, and PDGFR. It is activated by binding to FL, which leads to increased kinase activity and activation of downstream signaling pathway including STATS, Ras, and PI3Kinase.
Compounds of the invention were tested for cell viability effect on MV4-11 cells. For cell viability assay, MV4-11 cells expressing human FLT3-ITD were obtained from the American Type Culture Collection (ATCC, Manassas, Va.). This cell line was maintained with an Roswell Park Memorial Institute (RPMI) medium (HyClone™) containing 10 bovine calf serum (BCS; Hyclone™) supplemented iron. The MV4-11 cells were seeded at 2×10^4 cells in 96-well culture plates, and serially diluted compound was then added. After a 72-hour incubation period at 37° C., cell viability was measured using the ATPLite 1 step assay (Perkin-Elmer™) that is based on the quantification of ATP from viable cells. CellTiter Aqueous assay (Promega™) was also performed in parallel as an orthogonal assay. IC50 values were calculated using nonlinear regression and defined as the concentration needed for a 50 reduction in luminescence or absorbance treated versus untreated control cells (Prism™ Software).

[6] = target: T2, FLT3 (Homo sapiens, UniProt P36888); assay: Kinase inhibition assay: FLT3; format: biochemical
T2 construct: truncated human FAK, RET, FLT3, JAK2, and LRRK2; purchased Carna Biosciences
T2 sequence (P36888 564-993 limits assumed): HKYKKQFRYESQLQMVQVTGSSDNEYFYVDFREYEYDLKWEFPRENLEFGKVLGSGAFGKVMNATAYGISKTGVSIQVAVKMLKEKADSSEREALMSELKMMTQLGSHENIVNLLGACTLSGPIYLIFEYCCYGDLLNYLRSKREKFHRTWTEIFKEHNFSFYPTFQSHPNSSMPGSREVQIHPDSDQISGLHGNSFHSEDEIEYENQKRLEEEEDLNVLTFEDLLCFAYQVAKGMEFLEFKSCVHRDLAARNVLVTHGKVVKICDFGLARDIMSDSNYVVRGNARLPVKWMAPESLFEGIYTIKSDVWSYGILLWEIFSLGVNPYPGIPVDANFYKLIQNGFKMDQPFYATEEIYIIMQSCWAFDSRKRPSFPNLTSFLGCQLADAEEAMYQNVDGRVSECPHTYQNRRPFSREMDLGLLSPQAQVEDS
Procedure: as §1, §2, §3

[7] = target: T3, RET (Homo sapiens, UniProt P07949); assay: Kinase inhibition assay: RET; format: biochemical
T3 construct: truncated human FAK, RET, FLT3, JAK2, and LRRK2; purchased Carna Biosciences
T3 sequence (P07949 658-1114 limits assumed): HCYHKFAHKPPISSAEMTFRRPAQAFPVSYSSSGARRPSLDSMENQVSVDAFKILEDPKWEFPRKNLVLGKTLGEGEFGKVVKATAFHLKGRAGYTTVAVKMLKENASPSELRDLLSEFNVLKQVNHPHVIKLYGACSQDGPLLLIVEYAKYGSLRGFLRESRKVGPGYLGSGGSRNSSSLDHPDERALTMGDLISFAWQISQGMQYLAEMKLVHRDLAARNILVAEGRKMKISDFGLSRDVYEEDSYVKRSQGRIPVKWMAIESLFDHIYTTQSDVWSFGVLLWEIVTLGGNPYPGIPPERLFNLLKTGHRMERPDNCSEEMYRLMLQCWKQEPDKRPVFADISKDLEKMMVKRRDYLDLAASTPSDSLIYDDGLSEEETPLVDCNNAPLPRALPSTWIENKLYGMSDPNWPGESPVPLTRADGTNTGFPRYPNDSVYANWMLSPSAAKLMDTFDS
Procedure: as §1, §2, §3

[8] = THP-1 cells, IgG stimulation, 0.3 μM, 18-hour incubation
[9] = THP-1 cells, IgG stimulation, 1 μM, 18-hour incubation

SMILES: Cc1cc(Nc2nccc(-n3cc(CN4CC[C@@H](O)C4)c(C)n3)n2)cc(C)c1OCCN1CCCC1 [Compound 46, (R)-1-((1-(2-(3,5-dimethyl-4-(2-(pyrrolidin-1-yl)ethoxy)phenyl-amino)pyrimidin-4-yl)-3-methyl-1H-pyrazol-4-yl)methyl)pyrrolidin-3-ol]
- IC50 [1]: 5.9 nM

SMILES: Cc1cn(-c2ccnc(Nc3ccc4c(ccn4C)c3)n2)cc1CN1CC(O)C1 [Compound 52, 1-((4-methyl-1-(2-(1-methyl-1H-indol-5-ylamino)pyrimidin-4-yl)-1H-pyrrol-3-yl)methyl)azetidin-3-ol]
- IC50 [1]: 3.5 nM

SMILES: Cc1cc(C)cc(Nc2ncc(F)c(-n3cc(CN(C)C)c(C)n3)n2)c1 [Compound 77, 4-(4-((dimethylamino)methyl)-3-methyl-1H-pyrazol-1-yl)-N-(3,5-dimethylphenyl)-5-fluoropyrimidin-2-amine]
- inhibition at 0.3 µM [2, 8]: 35.3%
- inhibition at 1 µM [2, 9]: 69.5%
- inhibition at 0.3 µM [3]: 42.2%
- inhibition at 1 µM [3]: 36%

SMILES: Cc1cc(C)cc(Nc2ncc(F)c(-n3cc(C)c(CN(C)C)c3)n2)c1 [Compound 80, 4-(3-((dimethylamino)methyl)-4-methyl-1H-pyrrol-1-yl)-N-(3,5-dimethylphenyl)-5-fluoropyrimidin-2-amine]
- inhibition at 0.3 µM [2, 8]: 51.5%
- inhibition at 1 µM [2, 9]: 91.1%
- inhibition at 0.3 µM [3]: 8.2%
- inhibition at 1 µM [3]: 12.5%

SMILES: COc1cc(Nc2ncc(C)c(-n3cc(C)c(CN4CC(OC(=O)C(C)(C)C)C4)c3)n2)cc(OC)c1OC [Compound 93, 1-((4-methyl-1-(5-methyl-2-(3,4,5-trimethoxyphenylamino)pyrimidin-4-yl)-1H-pyrrol-3-yl)methyl)azetidin-3-yl pivalate]
- IC50 [4]: 219 nM
- inhibition level compared with Vandetinib and Sunitinib ([5]; FLT3 ITD induced cancer cell line (MV4-11)): greater than those exhibited by Vandetinib and Sunitinib
- IC50 [5]: 0.6 nM
- IC50 [6]: 11.7 nM
- IC50 [7]: 76.1 nM

SMILES: COc1cc(Nc2ncc(C)c(-n3cc(C)c(CN4CCCNCC4)c3)n2)cc(OC)c1OC [Compound 96, 4-(3-((1,4-diazepan-1-yl)methyl)-4-methyl-1H-pyrrol-1-yl)-5-methyl-N-(3,4,5-trimethoxyphenyl)pyrimidin-2-amine trihydrochloride]
- IC50 [4]: 3.9 nM
- IC50 [5]: 12.5 nM
- IC50 [6]: 0.53 nM
- IC50 [7]: 10.1 nM

SMILES: Cc1cc(C)cc(Nc2ncc(F)c(-n3ccc(CN(C)C)c3)n2)c1 [Compound 132, 4-(3-((dimethylamino)methyl)-1H-pyrrol-1-yl)-N-(3,5-dimethylphenyl)-5-fluoropyrimidin-2-amine]
- inhibition at 0.3 µM [2, 8]: 85.9%
- inhibition at 1 µM [2, 9]: 94.5%
- percentage inhibition of TNF-α release compared with R406 ([2]; 0.3 μM): greater that those exhibited by R406
- inhibition at 0.3 µM [3]: 3.1%
- inhibition at 1 µM [3]: 8.2%

SMILES: Cc1cc(C)cc(Nc2ncc(F)c(-n3ccc(CN4CC[C@@H](O)C4)c3)n2)c1 [Compound 133, (R)-1-((1-(2-(3,5-dimethylphenyl-amino)-5-fluoropyrimidin-4-yl)-1H-pyrrol-3-yl)methyl)pyrrolidin-3-ol]
- inhibition at 0.3 µM [2, 8]: 86.3%
- inhibition at 1 µM [2, 9]: 99.4%
- percentage inhibition of TNF-α release compared with R406 ([2]; 0.3 μM): greater that those exhibited by R406; also recorded: greater percentage inhibition
- inhibition at 0.3 µM [3]: 13.8%
- inhibition at 1 µM [3]: 14.2%

SMILES: COc1cc(Nc2ncc(F)c(Nc3ccc4c(n3)NC(=O)C(C)(C)O4)n2)cc(OC)c1OC [Compound R406, R406, reference compound]
- TNF-α Release Inhibition, IgG stimulation, At 0.3 μM [2, 8]: 49.9%
- TNF-α Release Inhibition, IgG stimulation, At 1 μM [2, 9]: 87.4%

SMILES: C[C@@H]1C[C@H]2[C@@H]3CCC4=CC(=O)C=C[C@]4(C)[C@@]3(F)[C@@H](O)C[C@]2(C)[C@@]1(O)C(=O)CO [Dexamethasone, reference compound]
- inhibition at 1 µM [3]: 68.4%

SMILES: CCN(CC)CCNC(=O)c1c(C)[nH]c(/C=C2\C(=O)Nc3ccc(F)cc32)c1C [Sunitinib, reference compound]
- IC50 [5]: 3.8 nM
